Laboratory results: patent US7074761B1, “Peptides and production and use thereof” (Takeda Chemical Ind., Ltd., priority 1996, dated 2006)
Where a SMILES comes first, the peptide text is derived from it. Bridges are numbered along the chain shown (N, C = ends).

Assays:
[1] = biological target: T1, human SSTR5 (Homo sapiens, UniProt P35346); experiment: cAMP accumulation inhibiting activity in SSTR5 expressing CHO cells (forskolin stimulated); format: cell-based; settings: forskolin 10 μM, CHO cells SSTR5-32-4; read-out: ED50, inhibition of intracellular cAMP accumulation, SSTR5
T1 construct: expressed in transfected cells; host or cells: CHO(dhfr-) cells, clone SSTR5-32-4, plasmid pA-1-11-SSTR5 (vector pAKKO-111)
Procedure: For measuring the intracellular accumulations of cyclic adenosine 3′,5′-monophosphate (cAMP), the human somatostatin receptor expressing cell lines SSTR2-HS5-9, SSTR3-15-19, SSTR4-1-2 and SSTR5-32-4 respectively described in Reference Example 2 (3), Reference Example 3 (3), Reference Example 4 (3) and Reference Example 5 (3) were multiplied on 24-well plates until confluency. Said cells were washed with two 1-ml portions of medium A [Dulbecco-'s modified Eagle's medium (DMEM), 20 mM 2-[4-(2-hydroxyethyl)-1-piperazinyl]ethanesulfonic acid (HEPES) (pH. 7.5), 0.2% BSA, 0.2 mM 3-isobutyl-1-methylxanthine (IBMX)] and then 400 μl of medium A was added to each well and incubation was carried out at 37° C. for 1 hour. To each well were added 50 μl of a hCS-15 or hCS-17 solution (each diluted to a concentration 10 times the final concentration with medium A) and 50 μl of a forskolin solution (final concentration: 10 μM), and incubation was carried out at 37° C. for 30 minutes. The cells were washed with two 1-ml portions of medium A and then 500 μl of medium A and 100 μL of 20% aqueous perchloric acid solution were added to each well, followed by standing at 4° C. for 20 minutes for cell lysis. […] The amount of cAMP contained in this extract was determined using an Amersham's kit (cAMP EIA system).

[2] = biological target: T2, human SSTR1 (Homo sapiens, UniProt P30872); experiment: [125I]-somatostatin binding inhibition, SSTR1 CHO cell membrane fraction; settings: 25° C., 60 minutes
T2 construct: expressed in transfected cells; host or cells: CHO(dhfr-) cells, clone SSTR1-8-3, plasmid pA-1-11-SSTR1 (vector pAKKO-111)
Procedure: CHO(dhfr^−) cells (1×10^6 cells) were cultured on HAM F12 medium containing 10% fetal bovine serum in a dish with a diameter of 8 cm for 24 hours. Into these cells was introduced 10 μg of the human SSTR1 cDNA expression plasmid pA-1-11-SSTR1 obtained as described above in (2) by the calcium phosphate method (Cell Phect Transfection Kit; Pharmacia). At 24 hours after transfection, the medium was exchanged for Dulbecco's modified Eagle's medium (DMEM) containing 10% dialyzed fetal bovine serum, and cells forming a colony on this medium (namely DHFR^+ cells) were selected. Further, the cells selected were treated by the limiting dilution method for cloning from a single cell, and the somatostatin receptor protein activity was measured in the following manner. […] The [^125I] on the filter paper was measured with a γ counter. […]
The membrane fractions prepared in Reference Example 6 were each diluted to 3 μg/ml with assay buffer. […] After filtration, the radioactivity of [^125I]-somatostatin remaining on the filter paper was measured. For each test substance, the binding inhibition percentage (%) was calculated according to the formula: PBM=(B−NSB)/(B0−NSB)×100 (where PBM: percent maximum binding; B: radioactivity when the test sample is added; B0: maximum bound radioactivity; NSB: non-specifically bound radioactivity). […]

T2 sequence (P30872 whole entry): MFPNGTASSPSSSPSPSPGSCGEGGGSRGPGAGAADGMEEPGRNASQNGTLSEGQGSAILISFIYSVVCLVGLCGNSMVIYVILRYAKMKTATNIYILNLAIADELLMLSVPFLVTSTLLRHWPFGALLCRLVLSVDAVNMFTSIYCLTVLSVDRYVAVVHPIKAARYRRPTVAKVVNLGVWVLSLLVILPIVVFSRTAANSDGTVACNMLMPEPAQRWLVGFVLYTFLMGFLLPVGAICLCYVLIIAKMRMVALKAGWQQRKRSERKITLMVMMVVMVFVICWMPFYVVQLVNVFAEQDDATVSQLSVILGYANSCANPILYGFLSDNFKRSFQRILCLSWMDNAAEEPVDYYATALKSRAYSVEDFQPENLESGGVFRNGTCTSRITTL
T1 sequence (P35346 whole entry): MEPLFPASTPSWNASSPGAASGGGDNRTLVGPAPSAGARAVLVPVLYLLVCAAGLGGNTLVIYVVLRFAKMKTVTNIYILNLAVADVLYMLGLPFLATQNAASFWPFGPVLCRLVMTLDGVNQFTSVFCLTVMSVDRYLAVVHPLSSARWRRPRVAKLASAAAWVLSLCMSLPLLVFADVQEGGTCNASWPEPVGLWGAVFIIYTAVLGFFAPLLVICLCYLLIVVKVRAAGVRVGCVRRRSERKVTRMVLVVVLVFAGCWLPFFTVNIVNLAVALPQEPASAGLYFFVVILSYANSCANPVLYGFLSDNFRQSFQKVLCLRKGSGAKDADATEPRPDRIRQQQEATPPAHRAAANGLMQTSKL

Structure (SMILES) | EC50 [1] [nM] | IC50 [2] [nM]
CSCC[C@H](N)C(=O)N1CCC[C@H]1C(=O)N[C@H]1CSSC[C@@H](C(=O)N[C@@H](CCCCN)C(=O)O)NC(=O)[C@H](CO)NC(=O)[C@H](CO)NC(=O)[C@H](Cc2ccccc2)NC(=O)[C@H]([C@@H](C)O)NC(=O)[C@H](CCCCN)NC(=O)[C@H](Cc2c[nH]c3ccccc23)NC(=O)[C@H](Cc2ccccc2)NC(=O)[C@H](Cc2ccccc2)NC(=O)[C@H](CC(N)=O)NC(=O)[C@H](CCCNC(=N)N)NC1=O [hCS-15] (H-MPCRNFFWKTFSSCK-OH; disulfide 3-14; N-terminus and C-terminus assumed) | 0.2 | 7
CSCC[C@H](NC(=O)[C@H](CCCNC(=N)N)NC(=O)[C@@H](N)CC(=O)O)C(=O)N1CCC[C@H]1C(=O)N[C@H]1CSSC[C@@H](C(=O)N[C@@H](CCCCN)C(=O)O)NC(=O)[C@H](CO)NC(=O)[C@H](CO)NC(=O)[C@H](Cc2ccccc2)NC(=O)[C@H]([C@@H](C)O)NC(=O)[C@H](CCCCN)NC(=O)[C@H](Cc2c[nH]c3ccccc23)NC(=O)[C@H](Cc2ccccc2)NC(=O)[C@H](Cc2ccccc2)NC(=O)[C@H](CC(N)=O)NC(=O)[C@H](CCCNC(=N)N)NC1=O [hCS-17] | 0.2 | 7
